This passage reports Emax and EC50 results from US20250002507A1, “7,8-DIHYDRO-5H-1,6-NAPHTHYRIDINE DERIVATIVES AS POSITIVE ALLOSTERIC MODULATORS OF THE MUSCARINIC ACETYLCHOLINE RECEPTOR M4 FOR TREATING NEUROLOGICAL AND PSYCHIATRIC DISORDERS” (Vanderbilt University, priority 2021, published 2025).

As usually defined, the Emax is the maximal effect, on the per cent scale that the assay sets. What is called EC50 is the midpoint of the concentration-response curve.

The test addresses T1, Human M4 (Homo sapiens, UniProt P08173).
T1 construct: expressed in transfected cells
T1 sequence (P08173 1-479): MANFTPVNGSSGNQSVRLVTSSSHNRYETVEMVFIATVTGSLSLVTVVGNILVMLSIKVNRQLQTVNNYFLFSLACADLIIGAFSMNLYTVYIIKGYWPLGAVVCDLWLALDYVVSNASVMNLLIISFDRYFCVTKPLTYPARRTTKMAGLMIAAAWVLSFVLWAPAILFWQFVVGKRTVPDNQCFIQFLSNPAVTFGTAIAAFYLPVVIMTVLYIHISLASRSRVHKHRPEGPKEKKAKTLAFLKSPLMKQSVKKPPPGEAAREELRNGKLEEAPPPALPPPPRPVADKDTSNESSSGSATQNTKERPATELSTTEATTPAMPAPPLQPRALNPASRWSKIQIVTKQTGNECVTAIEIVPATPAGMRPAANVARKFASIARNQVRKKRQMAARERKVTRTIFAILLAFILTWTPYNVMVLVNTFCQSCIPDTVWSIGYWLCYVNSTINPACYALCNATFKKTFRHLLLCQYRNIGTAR
Put plainly: mAChR M4 cell-based functional assay (calcium flux, potentiation of EC20 acetylcholine response), hM4-Gqi5 CHO-K1 cells. The note with it: for Emax at 30 µM: % ACh maximum at 30 μM, human M4, read-out: Emax; for EC50: hM4-Gqi5 CHO-K1 cells, calcium flux, PAM of EC20 acetylcholine, read-out: Human M4 EC50. The gist of the method:
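Positive allosteric modulation was scored as a concentration-dependent rise in the response to an EC20 dose of acetylcholine, added 144 s after the compound. Human M4-Gqi5 CHO-K1 cells carried Fluo-4 dye, and compounds ran as 11-point, 3-fold dilution series. EC50 and Emax came from four-parameter logistic fits of the FDSS fluorescence-ratio traces.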
(Calcium assays in cells follow changes in intracellular calcium, usually with a dye or a luminescent sensor.)

`Cc1cc2nccn2nc1N1CCc2ncc(-c3cn(C)nc3C)cc2C1` [Compound 108, 3-(1,3-dimethylpyrazol-4-yl)-6-(7-methylimidazo[1,2-b]pyridazin-6-yl)-7,8-dihydro-5H-1,6-naphthyridine]: the 50% effective concentration (EC50) stood at 399 nM. Further, the Emax at 30 µM (CHO-K1) worked out at 85%.

On to `Cc1cc2nccn2nc1N1CCc2ncc(-c3c(C)nn(C)c3C)cc2C1` [Compound 109, 6-(7-methylimidazo[1,2-b]pyridazin-6-yl)-3-(1,3,5-trimethylpyrazol-4-yl)-7,8-dihydro-5H-1,6-naphthyridine], for which the EC50 stood at 450 nM. Besides, the maximal response (Emax) at 30 µM (CHO-K1) stood at 81%.

On to `Cc1cc2nccn2nc1N1CCc2ncc(-c3c(C)noc3C)cc2C1` [Compound 110, 3,5-dimethyl-4-[6-(7-methylimidazo[1,2-b]pyridazin-6-yl)-7,8-dihydro-5H-1,6-naphthyridin-3-yl]isoxazole], for which the 50% effective concentration (EC50) was found to be 236 nM. In addition, the Emax at 30 µM (CHO-K1) came out at 62%.

`Cc1cc2nccn2nc1N1CCc2ncc(-c3ccn(C)n3)cc2C1` [Compound 111, 6-(7-methylimidazo[1,2-b]pyridazin-6-yl)-3-(1-methylpyrazol-3-yl)-7,8-dihydro-5H-1,6-naphthyridine]: the EC50 is 1180 nM. In addition, the maximal response (Emax) at 30 µM (CHO-K1) worked out at 69%.

As to `Cc1c(N2CCc3ncc(-c4cnn(C)c4)cc3C2)nn2cnnc2c1C` [Compound 112, 6-(7,8-dimethyl-[1,2,4]triazolo[4,3-b]pyridazin-6-yl)-3-(1-methylpyrazol-4-yl)-7,8-dihydro-5H-1,6-naphthyridine], the EC50 is 124 nM. Besides, the Emax at 30 µM (CHO-K1) came out at 101%.

Take `Cc1cc2nncn2nc1N1CCc2ncc(-c3cn(C)nc3C)cc2C1` [Compound 113, 3-(1,3-dimethylpyrazol-4-yl)-6-(7-methyl-[1,2,4]triazolo[4,3-b]pyridazin-6-yl)-7,8-dihydro-5H-1,6-naphthyridine]: the EC50 is 330 nM. Where the note is “CHO-K1”, the maximal effect (Emax) at 30 µM came out at 97%.

On to `Cc1cc2nncn2nc1N1CCc2ncc(-c3ccn(C)n3)cc2C1` [Compound 114, 3-(1-methylpyrazol-3-yl)-6-(7-methyl-[1,2,4]triazolo[4,3-b]pyridazin-6-yl)-7,8-dihydro-5H-1,6-naphthyridine], for which the half-maximal effective concentration (EC50) stood at 707 nM. Further, for the setting “CHO-K1”, the maximum response (Emax) at 30 µM amounted to 88%.

Consider `Cc1c(N2CCc3ncc(C(=O)NCc4ccc(C(C)(C)O)cc4)cc3C2)nn2cnnc2c1C` [Compound 115, 6-(7,8-dimethyl-[1,2,4]triazolo[4,3-b]pyridazin-6-yl)-N-[[4-(1-hydroxy-1-methyl-ethyl)phenyl]methyl]-7,8-dihydro-5H-1,6-naphthyridine-3-carboxamide], for which the EC50 is 4180 nM. Further, the maximal effect (Emax) at 30 µM (CHO-K1) is 73%.

Take `Cc1c(N2CCc3ncc(C(=O)NCC4CCCOC4)cc3C2)nn2cnnc2c1C` (stereo not drawn) [Compound 116, 6-(7,8-dimethyl-[1,2,4]triazolo[4,3-b]pyridazin-6-yl)-N-(tetrahydropyran-3-ylmethyl)-7,8-dihydro-5H-1,6-naphthyridine-3-carboxamide]: for the setting “CHO-K1”, the maximum response (Emax) at 30 µM is 75%.

Consider `Cc1c(N2CCc3ncc(C(=O)N4CC(F)C4)cc3C2)nn2cnnc2c1C` [Compound 117, [6-(7,8-dimethyl-[1,2,4]triazolo[4,3-b]pyridazin-6-yl)-7,8-dihydro-5H-1,6-naphthyridin-3-yl]-(3-fluoroazetidin-1-yl)methanone], for which, for the setting “CHO-K1”, the Emax at 30 µM worked out at 67%.

Take `Cc1c(N2CCc3ncc(C(=O)NCc4cncs4)cc3C2)nn2cnnc2c1C` [Compound 118, 6-(7,8-Dimethyl-[1,2,4]triazolo[4,3-b]pyridazin-6-yl)-N-(thiazol-5-ylmethyl)-7,8-dihydro-5H-1,6-naphthyridine-3-carboxamide]: the EC50 is 707 nM. Besides, the Emax at 30 µM (CHO-K1) came out at 99%.

Take `Cc1c(N2CCc3ncc(C(=O)N4CCC(O)CC4C)cc3C2)nn2cnnc2c1C` (stereo not drawn) [Compound 119, [6-(7,8-dimethyl-[1,2,4]triazolo[4,3-b]pyridazin-6-yl)-7,8-dihydro-5H-1,6-naphthyridin-3-yl]-(4-hydroxy-2-methyl-1-piperidyl)methanone]: under “CHO-K1”, the Emax at 30 µM was 73%.

Turning to `Cc1c(N2CCc3ncc(C(=O)NCC4COC4)cc3C2)nn2cnnc2c1C` [Compound 120, 6-(7,8-dimethyl-[1,2,4]triazolo[4,3-b]pyridazin-6-yl)-N-(oxetan-3-ylmethyl)-7,8-dihydro-5H-1,6-naphthyridine-3-carboxamide], the maximum response (Emax) at 30 µM (CHO-K1) worked out at 76%.

Consider `Cc1c(N2CCc3ncc(C(=O)NCc4cccs4)cc3C2)nn2cnnc2c1C` [Compound 121, 6-(7,8-dimethyl-[1,2,4]triazolo[4,3-b]pyridazin-6-yl)-N-(2-thienylmethyl)-7,8-dihydro-5H-1,6-naphthyridine-3-carboxamide], for which the EC50 came out at 881 nM. The maximal response (Emax) at 30 µM (CHO-K1) is 100%.

On to `Cc1c(N2CCc3ncc(C(=O)N4CCN(C5CC5)CC4)cc3C2)nn2cnnc2c1C` [Compound 122, (4-cyclopropylpiperazin-1-yl)-[6-(7,8-dimethyl-[1,2,4]triazolo[4,3-b]pyridazin-6-yl)-7,8-dihydro-5H-1,6-naphthyridin-3-yl]methanone], for which the Emax at 30 µM (CHO-K1) was determined as 51%.

Regarding `Cc1c(N2CCc3ncc(C(=O)N4CC(C)(C)C4)cc3C2)nn2cnnc2c1C` [Compound 123, (3,3-dimethylazetidin-1-yl)-[6-(7,8-dimethyl-[1,2,4]triazolo[4,3-b]pyridazin-6-yl)-7,8-dihydro-5H-1,6-naphthyridin-3-yl]methanone], the EC50 is 4770 nM. Moreover, the Emax at 30 µM (CHO-K1) was 77%.

For the molecule `Cc1c(N2CCc3ncc(C(=O)NC(C)c4nccs4)cc3C2)nn2cnnc2c1C` (stereo not drawn) [Compound 124, 6-(7,8-dimethyl-[1,2,4]triazolo[4,3-b]pyridazin-6-yl)-N-(1-thiazol-2-ylethyl)-7,8-dihydro-5H-1,6-naphthyridine-3-carboxamide], the EC50 was 3690 nM. The maximal response (Emax) at 30 µM (CHO-K1) came to 63%.

As for `Cc1c(N2CCc3ncc(C(=O)NCCN4CCCC4)cc3C2)nn2cnnc2c1C` [Compound 125, 6-(7,8-dimethyl-[1,2,4]triazolo[4,3-b]pyridazin-6-yl)-N-(2-pyrrolidin-1-ylethyl)-7,8-dihydro-5H-1,6-naphthyridine-3-carboxamide], the 50% effective concentration (EC50) was determined as 7200 nM. Further, the Emax at 30 µM (CHO-K1) was 85%.

For `Cc1c(N2CCc3ncc(C(=O)N(C)Cc4ccco4)cc3C2)nn2cnnc2c1C` [Compound 126, 6-(7,8-dimethyl-[1,2,4]triazolo[4,3-b]pyridazin-6-yl)-N-(2-furylmethyl)-N-methyl-7,8-dihydro-5H-1,6-naphthyridine-3-carboxamide], where the note is “CHO-K1”, the Emax at 30 µM amounted to 55%.

With `Cc1c(N2CCc3ncc(C(F)(F)F)cc3C2)nn2cnnc2c1C` [Compound 127, 6-(7,8-dimethyl-[1,2,4]triazolo[4,3-b]pyridazin-6-yl)-3-(trifluoromethyl)-7,8-dihydro-5H-1,6-naphthyridine], the EC50 was 151 nM. Moreover, for the setting “CHO-K1”, the Emax at 30 µM turned out to be 107%.

As for `Cc1ccc2c(n1)CCN(c1nn3cnnc3c(C)c1C)C2` [Compound 128, 6-(7,8-dimethyl-[1,2,4]triazolo[4,3-b]pyridazin-6-yl)-2-methyl-7,8-dihydro-5H-1,6-naphthyridine], the concentration giving a half-maximal response (EC50) is 380 nM. Moreover, the maximum response (Emax) (CHO-K1) turned out to be 103%.
